Values of other authors in US20130338126A1, “Ophthalmic Suspension for Ocular Use” (Allergan, Inc., priority 2008, published 2013).

Columns and labels:
[1] = tested on: Corynebacterium propinquum, Staphylococcus aureus, Staphylococcus epidermidis, Streptococcus mitis, Streptococcus pneumoniae, Haemophilus influenzae; conditions: both in vitro and clinically, in conjunctival infections
[2] = tested on: methicillin resistant Staphylococcus aureus, and Staphylococcus epidermidis; conditions: in vitro, gram-positive microorganisms
[3] = tested on: Streptococcus epidermidis
[4] = tested on: gram-negative microorganisms; conditions: many gram-negative microorganisms
[5] = tested on: Haemophylus influenzae clinical isolated cases; conditions: clinical isolates
bacteria = conditions: in vitro
[6] = tested on: Staphylococcus aureus and Staphylococcus epidermidis
[7] = tested on: topoisomerase II or gyrase mutations
[8] = ophthalmic solution 0.3% or 0.5% w/v, 2 drops up to 8 times a day; below inferior limit of quantification, all individuals
[9] = topical; p<0.005
bacterial conjunctivitis [10] = conditions: 0.3% ophthalmic solution, treated five days
bacterial conjunctivitis [11] = conditions: day 6 of treatment
[12] = tested on: bacterial flora in the eye
[13] = tested on: 379 isolated microorganisms; conditions: first day of treatment
[14] = tested on: Streptococcus pneumoniae isolates; conditions: all study visits
[15] = tested on: gram-negative bacteria, including all Haemophilus influenzae isolates; conditions: all study visits
[16] = human, in vivo

For `COc1c(N2CCNC(C)C2)c(F)cc2c(=O)c(C(=O)O)cn(C3CC3)c12` (centres unmarked) [gatifloxacin], the “activity against most strains” value [1] is listed as “shown to be active”, the “potency compared with ciprofloxacin, ofloxacin, levofloxacin and moxifloxacin” value [2] is listed as “more powerful than other quinolones” and the “effectiveness relative to ofloxacin” value [3] is listed as “eight times more effective”. The “activity compared to ofloxacin” value [4] was “increased activity compared to ofloxacin”, the “effectiveness relative to ofloxacin” value [5] was “two times more effective” and the “effectiveness relative to ciprofloxacin” value (mycobacterium) was “four times more effective/active”. The “action when combined with amicacin and claritromicin” value (Mycobacterium chelonae) was “synergistic action”, the “effectiveness relative to ciprofloxacin” value (Mycobacterium chelonae; p<0.001) was “more effective than ciprofloxacin” and the bacterial resistance (bacteria) was “low”. For the same compound, the bacterial resistance rates [6] was “lower for gatifloxacin than for ciprofloxacin or norfloxacin”, the “effect of mutations, compared to ofloxacin, ciprofloxacin, sparfloxacin and trovafloxacin” value [7] was “less affected” and the “cross-resistance with aminoglycosides, macrolides and tetracycline antibiotics” value (pathogenic agents) was “No cross-resistance has been observed”. The “cross-resistance with some other fluoroquinolones” value (pathogenic agents; systemic gatifloxacin) was “Cross-resistance has been observed”, the plasma levels [8] was under 5 ng/mL and the “penetration in the eye structures compared to ciprofloxacin” value [9] was “better penetration in the tissue”. The “killing rate of etiological agents” value (bacterial conjunctivitis [10]) was 92%, the clinical cure rate (bacterial conjunctivitis [10]; culture-confirmed bacterial conjunctivitis) was 77% and the “rates of microbiological cure” value (bacterial conjunctivitis [11]) was 83.3%. For the same compound, the “action against gram-positive cocci versus ciprofloxacin” value (bacterial keratitis; p<0.001) was “significantly superior”, the “rate of complete ulcer healing versus ciprofloxacin” value (bacterial keratitis; patients with keratitis) was “significantly higher rate of complete ulcer healing” and the “rate of bacterial reduction in the conjunctiva” value ([12]; gatifloxacin 0.3% / levofloxacin 0.5% ophthalmic solutions, one week pre-operative) was 74.3%. The “post-operative infection (endophthalmitis)” value ([12]; one week pre-operative treatment, cataract surgery) was “None of the individuals treated develop a post-operative infection”, the sensitiveness of isolates [13] was 95.8% and the sensitivity of isolates [14] was “All Streptococcus pneumoniae isolates were sensitive”. The sensitivity of isolates [15] was “All gram-negative bacteria were also sensitive” and the “adverse events: frequency, type, intensity or relation to causes versus ofloxacin or placebo” value [16] was “no statistically significant differences”.
